Reference: patent US6015823A, “4-Cyclohexylphenyl-oxazolines and their use for controlling animal pests” (Bayer Aktiengesellschaft, priority 1996, dated 2000)
Where two headings read alike, the source gives them in different places.

Legend:
[1] = logp: n-octanol/water partition coefficient by reversed phase HPLC; type: physicochemical; conditions: h2o/ch3cn, read-out: logp (logarithm to base ten of the n-octanol/water partition coefficient)
From the text: *) logp: Logarithm to base ten of the n-octanol/water partition coefficient, determined by reversed phase HPLC analysis using H2 O/CH3 CN.
*^) logp: Logarithm to base ten of the noctanol/water partition
coefficient, determined by reversed phase HPLC analysis using H2

[2] = test system: common spider mite (Tetranychus urticae); assay: Tetranychus test (OP resistant/dip treatment); type: in vivo; conditions: Tetranychus urticae, 312 h, read-out: destruction in %
Method: Tetranychus test (OP resistant/dip treatment)
Solvent: 3 parts by weight of dimethylformamide
Emulsifier: 1 part by weight of alkylaryl polyglycol ether
To produce a suitable preparation of active compound, 1 part by weight of active compound is mixed with the stated amount of solvent and the stated amount of emulsifier, and the concentrate is diluted with emulsifier-containing water to the desired concentrations.
Bean plants (Phaseolus vulgaris) which are heavily infested by all stages of the common spider mite (Tetranychus urticae) are dipped into the active compound preparation of the desired concentration.
After the desired period of time, the activity in % is determined. 100% means that all the spider mites have been killed; 0% means that none of the spider mites have been killed.

[3] = A isomer (possible geometric isomer)
[4] = B isomer (possible geometric isomer)

chromatographic logP [1, 3] | chromatographic logP [1, 4] | chromatographic logP [1] | SMILES | mortality at 0.0001 % [2] [%]
5.44 | 5.48 | – | Cc1cc(C)cc(OCC2COC3(CCC(c4ccc(C5COC(c6c(F)cccc6F)=N5)cc4)CC3)O2)c1 (stereo not shown) [Example 42] | –
3.57 | 3.6 | – | COCC1COC2(CCC(c3ccc(C4COC(c5c(F)cccc5F)=N4)cc3)CC2)O1 (stereo not shown) [Example 49] | –
4.52 | 4.84 | – | CC1CC(C)OC2(CCC(c3ccc(C4COC(c5c(F)cccc5F)=N4)cc3)CC2)O1 (stereo not shown) [Example 31] | –
4.73 | 4.75 | – | Fc1cccc(F)c1C1=NC(c2ccc(C3CCC4(CC3)OCC(COc3ccccc3)O4)cc2)CO1 (stereo not shown) [Example 41] | –
– | – | 2.53 | OC1CCC(c2ccc(C3COC(c4c(F)cccc4F)=N3)cc2)CC1 (single isomer, unassigned) [Example 2, 2-(2,6-difluorophenyl)-4-[4-(4-hydroxycyclohexyl)phenyl]-1,3-oxazoline] | –
4.77 | 4.86 | – | Fc1cccc(F)c1C1=NC(c2ccc(C3CCC4(CC3)OCC(c3c(F)cccc3F)O4)cc2)CO1 (stereo not shown) [Example 43] | –
– | – | 5.14 | Fc1cccc(F)c1C1=NC(c2ccc(C3CCC4(CC3)OCC(c3c(F)cccc3Cl)O4)cc2)CO1 (stereo not shown) [Example 59] | –
5.36 | 5.51 | – | Fc1cccc(F)c1C1=NC(c2ccc(C3CCC4(CC3)OCC(c3ccc(Br)cc3)O4)cc2)CO1 (stereo not shown) [Example 39] | –
3.95 | 3.98 | – | CC1CCOC2(CCC(c3ccc(C4COC(c5c(F)cccc5F)=N4)cc3)CC2)O1 (stereo not shown) [Example 29] | –
– | – | 4.95 | CCCCON=C1CCC(c2ccc(C3COC(c4c(F)cccc4F)=N3)cc2)CC1 (stereo not shown) [Example 36] | –
– | – | 4.16 | C=CCON=C1CCC(c2ccc(C3COC(c4c(F)cccc4F)=N3)cc2)CC1 (stereo not shown) [Example 55] | –
– | – | 3.09 | O=C1CCC(c2ccc(C3COC(c4c(F)cccc4Cl)=N3)cc2)CC1 (stereo not shown) [Example 57] | –
4.97 | 5 | – | CCCCOCC1COC2(CCC(c3ccc(C4COC(c5c(F)cccc5F)=N4)cc3)CC2)O1 (stereo not shown) [Example 51] | –
– | – | 2.54 | O=C1CCC(c2ccc(C(CCl)NC(=O)c3c(F)cccc3F)cc2)CC1 (stereo not shown) [2-(2,6-difluorobenzoylamido)-2-[4-(4-oxo-cyclohexyl)phenyl]-chloroethane] | –
5.23 | 5.37 | – | CC=CC1OC2(CCC(c3ccc(C4COC(c5c(F)cccc5F)=N4)cc3)CC2)OC1C=CC (stereo not shown) [Example 53] | –
– | – | 4.61 | COc1ccc(C2COC3(CCC(c4ccc(C5COC(c6c(F)cccc6F)=N5)cc4)CC3)OC2)cc1 (stereo not shown) [Example 44] | –
– | – | 5.4 | CCC1(CC)COC2(CCC(c3ccc(C4COC(c5c(F)cccc5F)=N4)cc3)CC2)OC1 (stereo not shown) [Example 38] | –
– | – | 5.46 | CCCC1(C)COC2(CCC(c3ccc(C4COC(c5c(F)cccc5F)=N4)cc3)CC2)OC1 (stereo not shown) [Example 37] | –
4.78 | 4.87 | – | Fc1cccc(F)c1C1=NC(c2ccc(C3CCC4(CC3)OCC(c3ccccc3)O4)cc2)CO1 (stereo not shown) [Example 58] | –
– | – | 3.47 | Fc1cccc(F)c1C1=NC(c2ccc(C3CCC4(CC3)OCCCO4)cc2)CO1 (stereo not shown) [Example 32] | –
5.1 | 5.16 | – | Fc1cccc(F)c1C1=NC(c2ccc(C3CCC4(CC3)OCC(COc3ccc(Cl)cc3)O4)cc2)CO1 (stereo not shown) [Example 46] | –

chromatographic logP [1, 3] | chromatographic logP [1, 4] | chromatographic logP [1] | SMILES | mortality at 0.0001 % [2] [%]
– | – | 2.74 | OC1CCC(c2ccc(C3COC(c4c(F)cccc4F)=N3)cc2)CC1 (stereo not shown) [Example 7] | –
– | – | 4.43 | CCC1COC2(CCC(c3ccc(C4COC(c5c(F)cccc5F)=N4)cc3)CC2)O1 (stereo not shown) [Example 27] | –
– | – | 2.57 | ON=C1CCC(c2ccc(C3COC(c4c(F)cccc4F)=N3)cc2)CC1 (stereo not shown) [Example 3, 2-(2,6-difluorophenyl)-4-[4-(4-oximino-cyclohexyl)phenyl]-1,3-oxazoline] | –
– | – | 4.21 | C=CCOCC1COC2(CCC(c3ccc(C4COC(c5c(F)cccc5F)=N4)cc3)CC2)O1 (stereo not shown) [Example 48] | –
– | – | 5.65 | Fc1cccc(F)c1C1=NC(c2ccc(C3CCC4(CC3)OCC(c3ccc(Cl)c(Cl)c3)O4)cc2)CO1 (stereo not shown) [Example 60] | –
7.19 | 7.28 | – | CCCCCCCCC1COC2(CCC(c3ccc(C4COC(c5c(F)cccc5F)=N4)cc3)CC2)O1 (stereo not shown) [Example 34] | –
5.96 | 6.2 | – | Fc1cccc(F)c1C1=NC(c2ccc(C3CCC4(CC3)OCC(Br)(c3ccc(Cl)cc3)O4)cc2)CO1 (stereo not shown) [Example 45] | –
– | – | 3.89 | CC1COC2(CCC(c3ccc(C4COC(c5c(F)cccc5F)=N4)cc3)CC2)O1 (stereo not shown) [Example 50] | –
– | – | 4.52 | CCCC1COC2(CCC(c3ccc(C4COC(c5c(F)cccc5F)=N4)cc3)CC2)O1 (stereo not shown) [Example 28] | –
– | – | 3.46 | Fc1cccc(F)c1C1=NC(c2ccc(C3CCC4(CC3)OCCO4)cc2)CO1 (stereo not shown) [Example 11] | –
– | – | 9 | CCCCCCCCCCCCCCCC1COC2(CCC(c3ccc(C4COC(c5c(F)cccc5F)=N4)cc3)CC2)O1 (stereo not shown) [Example 18] | –
5.12 | 5.19 | – | CC1CC(C)(C)OC2(CCC(c3ccc(C4COC(c5c(F)cccc5F)=N4)cc3)CC2)O1 (stereo not shown) [Example 26] | –
– | – | 3.99 | CC1COC2(CCC(c3ccc(C4COC(c5c(F)cccc5F)=N4)cc3)CC2)OC1 (stereo not shown) [Example 52] | –
– | – | 3.6 | CON=C1CCC(c2ccc(C3COC(c4c(F)cccc4F)=N3)cc2)CC1 (stereo not shown) [Example 56] | –
5.65 | 5.7 | – | C=CCCCCC1COC2(CCC(c3ccc(C4COC(c5c(F)cccc5F)=N4)cc3)CC2)O1 (stereo not shown) [Example 54] | –
– | – | 6.15 | CC(C)C1(c2ccc(Cl)cc2)COC2(CCC(c3ccc(C4COC(c5c(F)cccc5F)=N4)cc3)CC2)OC1 (stereo not shown) [Example 47] | –
– | – | – | CCCOc1ccc(-c2ccc(C3COC(c4c(F)cccc4F)=N3)cc2)cc1 (stereo not shown) [(F), reference compound] | 45
– | – | 5.11 | CC1(c2ccccc2)COC2(CCC(c3ccc(C4COC(c5c(F)cccc5F)=N4)cc3)CC2)OC1 (stereo not shown) [Example 40] | –
5.35 | 5.4 | – | CCCCC1COC2(CCC(c3ccc(C4COC(c5c(F)cccc5F)=N4)cc3)CC2)O1 (stereo not shown) [Example 30] | –
– | – | 4.5 | CC1(C)COC2(CCC(c3ccc(C4COC(c5c(F)cccc5F)=N4)cc3)CC2)OC1 (stereo not shown) [Example 33] | –

SMILES | chromatographic logP [1, 3] | chromatographic logP [1, 4] | chromatographic logP [1] | mortality at 0.0001 % [2] [%]
Fc1cccc(F)c1C1=NC(c2ccc(C3CCC4(CC3)OCC(c3cccc(Cl)c3Cl)O4)cc2)CO1 (stereo not shown) [Example 25] | – | – | 6.07 | 98
Fc1cccc(F)c1C1=NC(c2ccc(C3CCC4(CC3)OCC(c3ccccc3Cl)O4)cc2)CO1 (stereo not shown) [Example 24] | – | – | 5.6 | 98
Fc1cccc(F)c1C1=NC(c2ccc(C3CCC(=NOCc4ccccc4)CC3)cc2)CO1 (stereo not shown) [Example 12] | – | – | 4.7 | 98
Fc1cccc(F)c1C1=NC(c2ccc(C3CCC(=NOCc4ccccc4Cl)CC3)cc2)CO1 (stereo not shown) [Example 22] | – | – | 5.21 | 98
CC(C)(C)c1ccc(C2COC3(CCC(c4ccc(C5COC(c6c(F)cccc6F)=N5)cc4)CC3)O2)cc1 (stereo not shown) [Example 23] | – | – | 6.16 | 98
